Experimental data taken from patent publication US20080299538A1, “Pathogen Inactivation of Whole Blood” (CARIDIANBCT BIOTECHNOLOGIES, LLC, priority 2003, published 2008).

Experiments:
[1] = tested on: white blood cells (WBCs); assay: Cytokine production in response to LPS (Cytometric Bead Assay); settings: LPS, inflammatory cytokines
[2] = tested on: white blood cells (WBCs); assay: Cytokine production in response to anti-CD3/CD28 (Cytometric Bead Assay)
[3] = anti-CD3/28, 33 J/mlRBC and above, compared to untreated cells
[4] = anti-CD3/28, TH1/TH2 cytokines, 22 J/mlRBC
[5] = anti-CD3/28, TH1/TH2 cytokines, 33 J/mlRBC
[6] = anti-CD3/28, TH1/TH2 cytokines, 44 J/mlRBC
[7] = anti-CD3/28, inflammatory cytokines, 22 J/mlRBC
[8] = anti-CD3/28, inflammatory cytokines, 33 J/mlRBC
[9] = anti-CD3/28, inflammatory cytokines, 44 J/mlRBC

Cc1cc2nc3c(=O)[nH]c(=O)nc-3n(C[C@H](O)[C@H](O)[C@H](O)CO)c2cc1C [riboflavin, 7,8-dimethyl-10-ribityl isoalloxazine]
% inhibition of IL-8 production ([1]; 33 J/mlRBC): 96 ± 4%
% inhibition of IL-10 production ([1]; 33 J/mlRBC): 94 ± 5%
% inhibition of TNFα production ([1]; 33 J/mlRBC): 92 ± 8%
% inhibition of IL-1β production ([1]; 44 J/mlRBC): 98 ± 3%
% inhibition of IL-6 production ([1]; 44 J/mlRBC): 99 ± 1%
% inhibition of IL-8 production ([1]; 44 J/mlRBC): 99 ± 1%
% inhibition of IL-10 production ([1]; 44 J/mlRBC): 99 ± 1%
% inhibition of TNFα production ([1]; 44 J/mlRBC): 98 ± 2%
inflammatory cytokine production in response to anti-CD3/28 antibodies [2]: significantly reduced
TH1/TH2 cytokine production induced by anti-CD3/28 stimulation ([2]; all energies tested): significantly reduced
cytokine production in response to anti-CD3/anti-CD28 antibodies blocked ([2]; all energies tested, with the exception of IL-4 and IL-8 at 22 J/mlRBC): > 90%
inhibition of IFN-γ production [2, 3]: > 90%
inhibition of IL-2 production [2, 3]: > 90%
inhibition of TNF-α production [2, 3]: > 90%
% inhibition of IFN-γ production [2, 4]: 99 ± 1%
% inhibition of IL-2 production [2, 4]: 91 ± 7%
% inhibition of IL-4 production [2, 4]: 84%
% inhibition of IL-5 production [2, 4]: 94 ± 3%
% inhibition of IL-10 production [2, 4]: 99 ± 1%
% inhibition of TNFα production [2, 4]: 92 ± 15%
% inhibition of IFN-γ production [2, 5]: 100 ± 0%
% inhibition of IL-2 production [2, 5]: 99 ± 1%
% inhibition of IL-4 production [2, 5]: 95 ± 3%
% inhibition of IL-5 production [2, 5]: 99 ± 1%
% inhibition of IL-10 production [2, 5]: 100 ± 0%
% inhibition of TNFα production [2, 5]: 99 ± 1%
% inhibition of IFN-γ production [2, 6]: 100 ± 0%
% inhibition of IL-2 production [2, 6]: 100 ± 0%
% inhibition of IL-4 production [2, 6]: 97 ± 2%
% inhibition of IL-5 production [2, 6]: 99 ± 1%
% inhibition of IL-10 production [2, 6]: 100 ± 0%
% inhibition of TNFα production [2, 6]: 100 ± 0%
% inhibition of IL-1β production [2, 7]: 98 ± 2%
% inhibition of IL-6 production [2, 7]: 99 ± 2%
% inhibition of IL-8 production [2, 7]: 89%
% inhibition of IL-10 production [2, 7]: 99 ± 1%
% inhibition of IL-12 p70 production [2, 7]: 98 ± 4%
% inhibition of TNFα production [2, 7]: 90 ± 12%
% inhibition of IL-1β production [2, 8]: 100 ± 0%
% inhibition of IL-6 production [2, 8]: 100 ± 0%
% inhibition of IL-8 production [2, 8]: 98 ± 2%
% inhibition of IL-10 production [2, 8]: 100 ± 0%
% inhibition of IL-12 p70 production [2, 8]: 99 ± 2%
% inhibition of TNFα production [2, 8]: 100 ± 0%
% inhibition of IL-1β production [2, 9]: 100 ± 0%
% inhibition of IL-6 production [2, 9]: 100 ± 0%
% inhibition of IL-8 production [2, 9]: 100 ± 0%
% inhibition of IL-10 production [2, 9]: 100 ± 0%
% inhibition of IL-12 p70 production [2, 9]: 97 ± 4%
% inhibition of TNFα production [2, 9]: 100 ± 0%
